Assay results reported in patent US9743675B2, “Antimicrobial composition” (UNIVERSITY OF SURREY, priority 2009, dated 2017).
“And” between values parts separate entries of the source, which are not always exact repeats. Equal values may be shown once. Read-outs that look alike come from different tables or passages of the source.

Tests used:
Salmonella enteritidis [1] = test: micro broth dilution, coniferaldehyde and vanillin with and without DHAA (Example 9); type: cell-based; conditions: Vanilin/Coniferylaldehyde 0/5 mM; DHAA 20 mM if combined
Protocol: All stock solutions were stored at 5° C. In vitro bioassay: The MIC of the different treatments was determined using a micro broth dilution method. […] Control wells were prepared by adding 100 μL acetone. […] […] The plates were placed in a laminar flow chamber for 8 hours to evaporate the solvent. […] Where possible, colonies were counted to obtain more precise quantitative data.

Salmonella enterica [2] = test: perlite assay, survival of Salmonella enterica: vanillin with dehydro-abietic acid (Example 1); type: cell-based
Protocol: A 20 mmol solution of dehydroabietic acid in alcohol and water was also prepared.

[3] = solubility in water, concluded from water extraction of heated pine shavings; type: physicochemical
Salmonella enteritidis [4] = test: perlite bio-assay with pure DHAA and vanillin (Example 7); type: cell-based; conditions: DHAA (10 μl of 20 mM) if +DA
Protocol: Also, one 20 mM stock solution of DHAA was made in acetone. Bioassay test: The test was carried out using 1.5 ml Eppendorf tubes containing 10 mg of fine perlite. Ten μl of each concentration of vanillin was dispensed into four Eppendorf tubes to obtain four replicates of each concentration. Two of these received 10 μl of DHAA. The tubes were left in laminar flow chamber for 3 h to allow evaporation of the acetone. […] To keep the perlite moist during incubation, 10 μl of sterile R.O water was dispensed into each tube. As controls, two tubes received DHAA only and two tubes received R.O water only. The tubes were incubated overnight, and bacterial survival was quantified by plating the content of each tube onto nutrient agar for the bacterial count.

Salmonella enterica [5] = system: Salmonella enterica
Salmonella enterica [6] = type: cell-based
Protocol: 20 mmol solutions of ursolic acid, oleonic acid and betulin in alcohol were also prepared.

S. cerevisiae = test: inhibition zone experiment on TLC plate; type: cell-based; conditions: FIG. 8, S. cerevisiae; on its own or in combination with DHAA
Protocol: Two test solutions were prepared, i.e.: (i) vanillin in combination with DHAA, and (ii) stilbene in combination with dehydro-abietic acid (DHAA). The activity of the solutions were then tested on several different micro-organisms, as follows. A droplet of a test solution was placed on a TLC plate. The solvent was allowed to evaporate and a suspension of test micro-organisms (Gram-positive and Gram-negative bacteria) in broth was applied evenly onto the TLC plate. The plate was incubated overnight. To visualise microbial activity, the TLC plate was sprayed with tetrazolium salt solution. Microbial activity was indicated by a red-pink colour. To show the efficacy of the solutions against filamentous fungi, the inoculated TLC plates were incubated until the fungus started to sporulate. To show efficacy against yeast, after incubation, the TLC plates were pressed against a nutrient agar plate. The plate was incubated until yeast colonies were clearly visible.

S. enteritidis = test: inhibition zone experiment on TLC plate; type: cell-based; conditions: FIG. 3
Protocol: Two test solutions were prepared, i.e.: (i) vanillin in combination with DHAA, and (ii) stilbene in combination with dehydro-abietic acid (DHAA). The activity of the solutions were then tested on several different micro-organisms, as follows.
A droplet of a test solution was placed on a TLC plate. The solvent was allowed to evaporate and a suspension of test micro-organisms (Gram-positive and Gram-negative bacteria) in broth was applied evenly onto the TLC plate. The plate was incubated overnight. To visualise microbial activity, the TLC plate was sprayed with tetrazolium salt solution. Microbial activity was indicated by a red-pink colour.

Structure (SMILES): COc1cc(/C=C/C=O)ccc1O [Coniferyl aldehyde, coniferaldehyde]
- Colony counts (Salmonella enteritidis [1]): TMTC

Structure (SMILES): CC(C)c1ccc2c(c1)CC[C@H]1[C@](C)(C(=O)O)CCC[C@]21C [Dehydro-Abietic acid, dehydroabietic acid]
- Average no of cfu recovered per droplet (Salmonella enterica [2]; DHAA 20 mmol alone, vanillin 0): >100 cfu
- solubility in water [3]: poorly-soluble in water

Structure (SMILES): COc1cc(C=O)ccc1O [Vanillin, 4-hydroxy-3-methoxybenzaldehyde]
- Salmonella enteritidis count (Salmonella enteritidis [4]; vanillin 0.313 mM): TMTC
- Salmonella enteritidis count (Salmonella enteritidis [4]; vanillin 2.5 mM): TMTC
- Salmonella enteritidis count (Salmonella enteritidis [4]; vanillin 5 mM): TMTC
- Salmonella enteritidis count (Salmonella enteritidis [4]; vanillin 10 mM): 394 CFU/tube and 500 CFU/tube
- Average no. of cfu recovered per droplet (Salmonella enterica [5]; vanillin 20 mmol, citric acid 20 mmol if combined): >100 cfu
- Average no. of cfu recovered per droplet (Salmonella enterica [6]): >100 cfu
- concentration of vanillin at which it is effective (S. cerevisiae): 5 mM
- Average no of cfu recovered per droplet (Salmonella enterica [2]; vanillin 0.001 mmol, DHAA 20 mmol if combined): >100 cfu
- Average no of cfu recovered per droplet (Salmonella enterica [2]; vanillin 0.019 mmol, DHAA 20 mmol if combined): >100 cfu
- Average no of cfu recovered per droplet (Salmonella enterica [2]; vanillin 0.039 mmol, DHAA 20 mmol if combined): >100 cfu
- Average no of cfu recovered per droplet (Salmonella enterica [2]; vanillin 0.078 mmol, DHAA 20 mmol if combined): >100 cfu
- Average no of cfu recovered per droplet (Salmonella enterica [2]; vanillin 0.156 mmol, DHAA 20 mmol if combined): >100 cfu
- Average no of cfu recovered per droplet (Salmonella enterica [2]; vanillin 0.313 mmol, DHAA 20 mmol if combined): >100 cfu
- Average no of cfu recovered per droplet (Salmonella enterica [2]; vanillin 0.625 mmol, DHAA 20 mmol if combined): >100 cfu
- Average no of cfu recovered per droplet (Salmonella enterica [2]; vanillin 1.25 mmol, DHAA 20 mmol if combined): >100 cfu
- Average no of cfu recovered per droplet (Salmonella enterica [2]; vanillin 2.5 mmol, DHAA 20 mmol if combined): >100 cfu
- Average no of cfu recovered per droplet (Salmonella enterica [2]; vanillin 5 mmol, DHAA 20 mmol if combined): >100 cfu
- Average no of cfu recovered per droplet (Salmonella enterica [2]; vanillin 10 mmol, DHAA 20 mmol if combined): >100 cfu
- Average no of cfu recovered per droplet (Salmonella enterica [2]; vanillin 20 mmol, DHAA 20 mmol if combined): >100 cfu
- inhibitory effect on Salmonella (Salmonella enterica [2]; vanillin on its own, 20 mmol or less): no inhibitory effect
- inhibition of S. enteritidis on TLC plate (S. enteritidis): ineffective

Structure (SMILES): C=C(C)[C@@H]1CC[C@]2(CO)CC[C@]3(C)[C@H](CC[C@@H]4[C@@]5(C)CC[C@H](O)C(C)(C)[C@@H]5CC[C@]43C)[C@@H]12 [betulin]
- Average no. of cfu recovered per droplet (Salmonella enterica [6]; triterpenoid 20 mmol alone, vanillin 0): >100 cfu

Structure (SMILES): O=C(O)CC(O)(CC(=O)O)C(=O)O [citric acid]
- Average no. of cfu recovered per droplet (Salmonella enterica [5]; citric acid 20 mmol alone, vanillin 0): >100 cfu

Structure (SMILES): CC1(C)CC[C@]2(C(=O)O)CC[C@]3(C)C(=CC[C@@H]4[C@@]5(C)CC[C@H](O)C(C)(C)[C@@H]5CC[C@]43C)[C@@H]2C1 [oleanic acid, oleanolic acid]
- Average no. of cfu recovered per droplet (Salmonella enterica [6]): >100 cfu

Structure (SMILES): C[C@H]1[C@H](C)CC[C@]2(C(=O)O)CC[C@]3(C)C(=CC[C@@H]4[C@@]5(C)CC[C@H](O)C(C)(C)[C@@H]5CC[C@]43C)[C@H]12 [ursolic acid]
- Average no. of cfu recovered per droplet (Salmonella enterica [6]): >100 cfu
